In patent publication US9815788B2, “Anti-angiogenic compounds” (University College Dublin National University of Ireland, …, priority 2012, dated 2017):
“Also recorded” adds a separate entry of the source.

How the values were obtained:
[1] = tested on: OE33R radio-resistant oesophageal adenocarcinoma cells; experiment: Cell number after 24 hours drug treatment (crystal violet absorbance), OE33R; type: cell-based, human; conditions: 10 μM
Protocol: (§1) OE33P radio-sensitive and OE33R radio-resistant oesophageal adenocarcinoma cells were used to test the effects of the compounds 11B HCl, […], 11B CC16 HCl, 11B 471 and 11B 268 on cell number. Cells were maintained in RPMI media supplemented with 10% foetal calf serum, penicillin (100 U/ml) and streptomycin (100 gig/ml). A total of 11.000 or 13,000 cells, in 100 μl media, were seeded per well in 24 well plates and left to incubate for 24 hours, with an additional 150 μl media added after 5 hours. The media was replaced with solutions containing 10 μM of 11B HCl, 11B CC11 HCl, 11B CC16 HCl, 11B 471, 11B 268 or fresh media as a control. Each drug had 6 replicates. After 24 hours of treatment, the cells were fixed with 1% glutaraldehyde for 15 minutes and then stained with crystal violet for 30 minutes. The plates were blotted and dried overnight. The cells were resuspended with 1% TritonX-100 and shaken for 15 minutes. The absorbance was read on a spectrophotometer at 590 nm.
(§2) OE33P radiosensitive and OE33R radioresistant cells were used to test the effects of the compound 11B_Z_HCl on toxicity. Cells were maintained in RPMI media supplemented with 10% foetal calf serum, penicillin (100 U/ml) and streptomycin (100 μg/ml). A total of 11,000 cells, in 100 μl media, were seeded per well in 24 well plates and left to incubate for 24 hours, with an additional 150 μl media added after 5 hours. The media was replaced with solutions containing 10 μM of 11B_Z_HCl or fresh media as a control. Each treatment had 6 replicates. After 24 hours of treatment, the cells were fixed with 1% glutaraldehyde for 15 minutes and then stained with crystal violet for 30 minutes. The plates were blotted and dried overnight. The cells were resuspended with 1% TritonX-100 and shaken for 15 minutes. The absorbance was read on a spectrophotometer at 590 nm.

[2] = tested on: zebrafish hyaloid vasculature; experiment: Quantification of primary hyaloid vasculature branch number in Tg(fli1:EGFP) zebrafish; type: in vivo; conditions: for inhibition of developmental angiogenesis of the hyaloid vasculature (number of primary hyaloid vessels): typically 10 μM or 5 μM, from 24 hpf, vs DMSO control
Protocol: (§3) All experiments were carried out under ethical approval granted by the UCD animal research ethics committee. Tg(fli1:EGFP) zebrafish were maintained according to standard procedures on a 14 hr light/10 hr dark cycle at 28° C. Embryos were obtained by natural spawning and developmental stages established by time and morphological criteria. […] Larvae were euthanised, and fixed in 4% PFA at 4° C. overnight before analysis.
Overall patterning of the vasculature (fin, gut and intersegmental vessels) was examined for abnormalities. Right lenses were dissected from the larvae and transferred to depression slides for observation under epi-fluorescence in the Olympus SZX16. Patterning of the hyaloid vessels on the treated larval lenses was compared to DMSO controls and the archetypal pattern previously described (Alvarez et al., 2007; Alvarez et al., 2009).
as §3, with “analysis. Lenses were dissected from the larvae and transferred to depression slides for observation under epi-fluorescence in the Olympus SZX16. Patterning of the hyaloid vessels on the treated larval lenses was compared to DMSO controls and the archetypal pattern previously described (Alvarez et al., 2007; Alvarez et al., 2009).” for “analysis.”

[3] = tested on: OE33P radiosensitive oesophageal adenocarcinoma cells; experiment: Quantification of oxidative phosphorylation (OCR, Seahorse), OE33P; type: cell-based, human; conditions: 10 μM, 24 hours
Protocol: OE33P radiosensitive and OE33R radio-resistant oesophageal adenocarcinoma cells were used to test the effects of the compounds 11B HCl, 11B CC11 HCl, 11B CC16 HCl, 11B 471 and 11B 268 on oxidative phosphorylation. Cells were maintained in RPMI media supplemented with 10% foetal calf serum, penicillin (100 U/ml) and streptomycin (100 μg/ml). A total of 11,000-13,000 cells, in 100 μl media, were seeded per well in 24 well plates and left to incubate for 24 hours, with an additional 150 μl media added after 5 hours. The media was replaced with solutions containing 10 μM of 11B HCl, 11B CC11 HCl, 11B CC16 HCl, 11B 471, 11B 268 or fresh media as a control. Each drug had 6 replicates. After 24 hours of treatment, media was replaced with modified DMEM supplemented with 0.5 mM glucose. Rates of oxidative phosphorylation were determined using Seahorse Biosciences metabolism technology. The media was disposed and the cells washed with PBS. The cells were fixed with 1% glutaraldehyde for 15 minutes and then stained with crystal violet for 30 minutes. The plates were blotted and dried overnight. The cells were resuspended with 1% TritonX-100 and shaken for 15 minutes. The absorbance was read on a spectrophotometer at 595 nm. Rates of oxidative phosphorylation were then normalised to cell number.
OE33P radiosensitive and OE33R radioresistant oesophageal adenocarcinoma cells were used to test the effects of the compound 11B_Z_HCl on oxidative phosphorylation. Cells were maintained in RPMI media supplemented with 10%0/foetal calf serum, penicillin […]) and streptomycin (100 μg/ml). A total of 11,000 cells, in 100 μl media, were seeded per well in 24 well plates and left to incubate for 24 hours, with an additional 150 μl media added after 5 hours. The media was replaced with solutions containing 10 μM of 11B_Z_HCl or fresh media as a control. Each treatment had 6 replicates. After 24 hours of treatment, media was replaced with modified DMEM supplemented with 0.5 mM glucose. Rates of oxidative phosphorylation were determined using Seahorse Biosciences metabolism technology. Rates of oxidative phosphorylation were then normalised to cell number.

[4] = tested on: OE33P radio-sensitive oesophageal adenocarcinoma cells; experiment: Cell number after 24 hours drug treatment (crystal violet absorbance), OE33P; type: cell-based, human; conditions: 10 μM
Protocol: as §1, §2

[5] = tested on: human SW480 colorectal cancer cells; experiment: Proliferation / cell number of SW480 cells (crystal violet); type: cell-based; conditions: 10 μM, by 96 hours
Protocol: Cells were maintained in RPMI media supplemented with 10% foetal calf serum, penicillin (100 U/ml), streptomycin (100 μg/ml) and amphotericin B (4 μg/ml). A total of 5,000 cells were seeded per well in 96 well plates and left to incubate for 24 hours. The cells were washed in PBS and the media was replaced with solutions containing 10 μM of 5-fluorouracil (5FU), 4H, 11A or 11C. […] At each designated time point, the media was disposed and the cells washed with PBS. The cells were fixed with 1% glutaraldehyde for 20 minutes and then stained with crystal violet for 30 minutes. The plates were blotted and dried overnight. The cells were resuspended with 1% TritonX-100 and shaken for 15 minutes. The absorbance was read on a spectrophotometer at 550 nm.

[6] = tested on: zebrafish intersegmental vessels; experiment: Quantification of intersegmental vessel number in zebrafish; type: in vivo; conditions: for inhibition of the number of intersegmental vessels that develop: 5 μM; for inhibition of developmental angiogenesis of intersegmental vessels (number of intersegmental vessels): 10 μM, from 6 hpf; for dose-dependent inhibition of development of intersegmental vessels: decreasing doses 10, 7.5, 5 and/or 1 μM
Protocol: […] Larvae were manually dechorionated, euthanised, and fixed in 4% PFA at 4° C. overnight before analysis. The larvae were then washed with PBS and transferred to depression slides for observation under epi-fluorescence in an Olympus SZX16 fluorescent microscope. The number of intersegmental vessels was counted and the average number was graphed for each drug.
Larvae were manually dechorionated, euthanised, and fixed in 4% PFA at 4° C. overnight before analysis. The larvae were then washed with PBS and transferred to depression slides for observation under epi-fluorescence in an Olympus SZX16 fluorescent microscope. The number of intersegmental vessels was counted and the average number was graphed for each drug.

[7] = tested on: explants cultures of human colorectal cancers; experiment: Angiogenic/inflammatory factor secretion from human colorectal tumour explants (ELISA, multiplex); type: cell-based; conditions: 10 μM, 72 hours; n=40 patients
Protocol: Human colorectal tumour samples were taken directly from the pathology laboratory after surgery once adequate material was taken for diagnostic testing. The tumour samples were washed and stored in DMSO/tumour conditioning media (TCM). The samples were snap-frozen in liquid nitrogen and stored at −80° C. until compound testing was performed. Prior to compound testing, the tumours were thawed and incubated in fresh TCM for 24 hours. The explants were then treated with 4H, 11A and 11C at […] concentrations for 72 hours. The TCM solutions were collected and stored at −20° C. and the remaining tumour explants were snap-frozen in liquid nitrogen and stored at −80° C. Proteins were extracted from the explants using a nuclear RIPA buffer containing PMSF, sodium orthovandate and protease inhibitors. The explants were homogenised in a PreCellys™ machine. The total protein contents were determined from the resulting lysates using the BCA assay™. […] The secretion of angiogenic cytokines was quantified using sandwich ELISA (DuoSet, R&D) for VEGF, ENA-78, MCP-1 and GROα and a multiplex assay (MSD) was used for the inflammatory cytokines: IL-13, TNF, IL-6 and IL-8. The secretion data were normalised according to the tumour sample's protein content.

| Molecule | cell number, measured by % absorbance [1] | dose-dependent inhibition of development of hyaloid vessels ([2]; decreasing doses 20, 10, 7.5, 5, 2.5, 1 and/or 0.5 μM) | inhibition of developmental angiogenesis of the hyaloid vasculature (number of primary hyaloid vessels) [2] | oxygen consumption rate (OCR), a measure of oxidative phosphorylation [3] | cell number, measured by % absorbance [4] | cell number, % of the control [5] | inhibition of the number of intersegmental vessels that develop [6] | inhibition of developmental angiogenesis of intersegmental vessels (number of intersegmental vessels) [6] | dose-dependent inhibition of development of intersegmental vessels [6] | cell number compared to control [5] | levels of ENA-78 secreted [7] | levels of GRO-α secreted [7] | levels of IL-1β secreted (printed IL-13, IL-1) [7] | levels of IL-8 secreted [7] | levels of MCP-1 secreted [7] | levels of TNFα secreted [7] | levels of VEGF secreted [7] | levels of IL-6 secreted [7] | inhibition of the number of primary hyaloid vessels that develop ([2]; 10 μM, n>20) |
| --- | --- | --- | --- | --- | --- | --- | --- | --- | --- | --- | --- | --- | --- | --- | --- | --- | --- | --- | --- |
| COc1ccccc1C=Cc1ccc2ccccc2n1 [Compound 11B-268, 2-(2-(2-Methoxyphenyl)vinyl)quinoline] | did not significantly reduce cell number | dose-dependent effect; also recorded: inhibit developmental angiogenesis of zebrafish hyaloid vasculature in a dose-dependent statistically significant manner | inhibit developmental angiogenesis of the zebrafish hyaloid vasculature in a statistically significant manner | significantly reduce | did not significantly reduce cell number | – | – | – | – | – | – | – | – | – | – | – | – | – | – |
| O=c1[nH]cc(F)c(=O)[nH]1 [5-fluorouracil, reference compound] | – | – | – | – | – | 60% | – | – | – | – | – | – | – | – | – | – | – | – | – |
| (5-bromo-N′-[2-(trifluromethyl)benzylidene]-2-furohydrazide) [Compound 11A] | – | – | – | – | – | – | significant inhibition | significant inhibition; also recorded: inhibit developmental angiogenesis of zebrafish intersegmental vessels in a statistically significant manner | dose-dependent effect | did not significantly reduce cell number | significantly reduced | significantly reduced | significantly reduced | significantly reduced | significantly reduced; also recorded: significant effects | significantly reduced | significantly reduced; also recorded: significant effects | – | – |
| Cc1ccc(N2C(=O)CC(NNC(=O)c3ccccc3)C2=O)c(C)c1 (stereo not drawn) [Compound 4H, N′-[1-(2,4-dimethylphenyl)-2,5-dioxo-3-pyrrolidinyl]benzohydrazide] | – | – | – | – | – | – | – | significant inhibition; also recorded: inhibit developmental angiogenesis of zebrafish intersegmental vessels in a statistically significant manner | dose-dependent effect | did not significantly reduce cell number | significantly reduced | significantly reduced | – | significantly reduced | significantly reduced; also recorded: significant effects | – | significantly reduced; also recorded: significant effects | significantly reduced | – |
| O=C(C=Cc1ccc2c(c1)OCO2)NCc1cccnc1 [Compound 11C] | – | – | inhibit developmental angiogenesis of the zebrafish hyaloid vasculature in a statistically significant manner | – | – | – | significant inhibition | significant inhibition; also recorded: inhibit developmental angiogenesis of zebrafish intersegmental vessels in a statistically significant manner | dose-dependent effect | did not significantly reduce cell number | significantly reduced | significantly reduced | – | significantly reduced | significantly reduced; also recorded: significant effects | significantly reduced | significant effects | significantly reduced | significant inhibition |
